The test system of data set [1] is Oryctolagus sp. To be noted: acute; dermal.
Data set [2] concerns Rattus norvegicus. The settings on record: oral; for LD50: acute.
The test system of data set [3] is Canidae. The settings on record: subchronic, oral, diet, Beagle.
The test system of data set [4] is Oryctolagus sp. The settings on record: duration: 14 days, oral, gavage, New Zealand.
Data set [5] concerns Rattus norvegicus. The settings on record: oral; for LOAEL / NOAEL: Crl: CD BR.
Where [6] appears, read: reproduction developmental, duration: 15 days, diet, Sprague-Dawley.
[7] abbreviates: subchronic, duration: 90 days, diet.
The mark [8] stands for this setting: developmental, M/F, generation: F1, F1: Developmental: Uterus: Dead Fetuses + F1: Developmental: Uterus: Fetuses, Live + F1: Developmental: Whole Body: Body Weight, Fetal + F1….
The mark [9] stands for this setting: reproduction developmental, F, generation: P0, P0: Developmental: Uterus: Abortions + P0: Developmental: Uterus: Implantation + P0: Developmental: Uterus: Resorptions, Early + P0: ….
The mark [10] stands for this setting: reproduction developmental, F, generation: P0, P0: Uterus: Abortions.
The mark [11] stands for this setting: reproduction developmental, F, generation: P0, P0: Whole Body: Maternal Body Weight Change.
[12] abbreviates: developmental, duration: 11 days, gavage, M/F, generation: F1, F1: Developmental: Uterus: Dead Fetuses + F1: Developmental: Uterus: Fetuses, Live + F1: Developmental: Whole Body: Body Weight, Fetal + F1….
Where [13] appears, read: developmental, duration: 11 days, gavage, M/F, Crl:CD(SD) BR, generation: F1, F1: Whole Body: Body Weight, Fetal.
Where [14] appears, read: reproduction developmental, duration: 11 days, gavage, F, generation: P0, P0: Developmental: Uterus: Implantation + P0: Developmental: Uterus: Resorptions, Early + P0: Developmental: Uterus: Resorptions, Late + P0….

SMILES strings stand for the structures.

One may read the LD50 as the dose expected to kill half of the subjects tested. For orientation: LOAEL means the lowest tested level that showed an adverse finding. Usually NOAEL stands for the highest tested level that showed no adverse finding. `Cc1cc(C(C)(C)C)c(O)c(C)c1Cn1c(=O)n(Cc2c(C)cc(C(C)(C)C)c(O)c2C)c(=O)n(Cc2c(C)cc(C(C)(C)C)c(O)c2C)c1=O` [Cyanox CY 1790]: the 50% lethal dose (LD50) in data set [1] was greater than 5000 mg/kg; in data set [2] (Wistar) it was greater than 10000 mg/kg. For the same molecule, in data set [2] (setting [6]), the LOAEL turned out to be 10000 ppm. Further, the NOAEL in data set [2] (setting [6]) came out at 1000 ppm; in data set [2] (reproduction developmental, diet, Sprague-Dawley, generation: F0) it was 1000 ppm; in data set [2] (reproduction developmental, diet, Sprague-Dawley, generation: F1), 20000 ppm; in data set [2] (subchronic, duration: 90 days, diet, Sprague-Dawley), 400 mg/kg-day; in data set [3] (duration: 13 weeks) it was 46 mg/kg-day; in data set [3] (duration: 30 days), 400 mg/kg-day. This molecule gave an NOAEL in data set [3] (duration: 90 days) of 30 mg/kg-day.

Regarding `C=CC[N+](C)(C)CC=C.[Cl-]` [Diallyldimethylammonium chloride], the LD50 in data set [2] (gavage, Sprague-Dawley) was 2520 mg/kg; in data set [2] (gavage, Wistar) it was 3930 mg/kg. Also, the NOAEL in data set [2] (developmental, duration: 9 days, gavage, Sprague-Dawley) came out at 6 mg/kg-day; in data set [2] (reproduction developmental, duration: 9 days, gavage, F, Sprague-Dawley), 6 mg/kg-day; in data set [2] (reproduction developmental, duration: 133 days, gavage, Sprague-Dawley, generation: F0), 1.25 mg/kg-day; in data set [2] (reproduction developmental, duration: 133 days, gavage, Sprague-Dawley, generation: F1), 1.25 mg/kg-day; in data set [2] (reproduction developmental, duration: 133 days, gavage, Sprague-Dawley, generation: F2) it was 1.25 mg/kg-day; in data set [2] (setting [7]) it was 50 mg/kg-day. This molecule showed an NOAEL in data set [3] (duration: 90 days) of 200 mg/kg-day. Further, the LOAEL in data set [2] (setting [7]) came out at 500 mg/kg-day; in data set [3] (duration: 90 days), 800 mg/kg-day.

As for `CCN(CCO)S(=O)(=O)C(F)(F)C(F)(F)C(F)(F)C(F)(F)C(F)(F)C(F)(F)C(F)(F)C(F)(F)F` [N-Ethyl-N-(2-hydroxyethyl)perfluorooctane sulfonamide], the LOAEL stood at 2.5 mg/kg-day in data set [4] (setting [8]), 2.5 mg/kg-day in data set [4] (setting [9]), 10 mg/kg-day in data set [5] (setting [12]) and 10 mg/kg-day in data set [5] (setting [14]). The NOAEL in data set [4] (setting [8]) is 1 mg/kg-day; in data set [4] (setting [9]), 1 mg/kg-day; in data set [4] (reproduction developmental, F, generation: P0, P0: Reproductive: Ovary: Corpora Lutea), 3.75 mg/kg-day; in data set [5] (setting [12]) it was 5 mg/kg-day; in data set [5] (setting [14]), 5 mg/kg-day; in data set [5] (reproduction developmental, duration: 11 days, gavage, F, generation: P0, P0: Reproductive: Ovary: Corpora Lutea), 20 mg/kg-day. The NEL in data set [4] (developmental, M/F, generation: F1, F1: Uterus: Fetuses, Dead + F1: Uterus: Fetuses, Live + F1: Whole Body: Body Weight, Fetal + F1: Whole Body: Fetal Alterations Count, …) came to 3.75 mg/kg-day; in data set [4] (reproduction developmental, F, generation: P0, P0: Ovary: Corpora Lutea + P0: Uterus: Implantation + P0: Uterus: Resorptions, Early + P0: Uterus: Resorptions, Late + P0: Whole Body: …), 3.75 mg/kg-day; in data set [4] (setting [10]), 2.5 mg/kg-day; in data set [4] (setting [11]) it was 1 mg/kg-day; in data set [5] (developmental, duration: 11 days, gavage, M/F, Crl:CD(SD) BR, generation: F1, F1: Uterus: Fetuses, Dead + F1: Uterus: Fetuses, Live + F1: Whole Body: Fetal Alterations Count, External Malformations + F1: Whole Body: …) it was 20 mg/kg-day; in data set [5] (setting [13]) it was 5 mg/kg-day. Besides, the NEL was 20 mg/kg-day in data set [5] (reproduction developmental, duration: 11 days, gavage, F, Crl:CD(SD) BR, generation: P0, P0: Ovary: Corpora Lutea + P0: Uterus: Implantation + P0: Uterus: Resorptions, Early + P0: Uterus: Resorptions, Late + P0: Whole Body: …) and 5 mg/kg-day in data set [5] (short-term, duration: 3 weeks, F, Sprague-Dawley, Kidney: Kidney Weight, Absolute + Kidney: Kidney Weight, Relative + Liver: Acyl-CoA Oxidase Activity, Liver + Liver: Catalase (CAT) Activity…). Further, the LEL in data set [4] (setting [10]) stood at 3.75 mg/kg-day; in data set [4] (setting [11]), 2.5 mg/kg-day; in data set [5] (setting [13]), 10 mg/kg-day; in data set [5] (short-term, duration: 3 weeks, F, Sprague-Dawley, Liver: Copper Zinc Superoxide Dismutase (CuZnSOD) Activity, Lver + Liver: Liver Weight, Relative + Liver: Manganese Superoxide Dismutase (…), 5 mg/kg-day.

The values are drawn from EPA's ToxValDB 9.5.
